One assay deals with CDK4 (Homo sapiens, UniProt P11802). As to conditions: cited from earlier work.
For another assay, the target named is CDK1 (Homo sapiens, UniProt P06493). The conditions noted are these: cited from earlier work.
A further assay has as its target CDK9 (Homo sapiens, UniProt P50750). Set-up: key: + is used to indicate the potency of the inhibitor; ++++ > +++ > ++ > +; + is used to indicate the potency of the inhibitor; ++++ > +++ > ++ > +; + is used to indicate the potency of the inhibitor; ++++ > +++ > ++ > +; + is used to indicate the potency of the inhibitor; ++++ > +++ > ++ > +; ◯ refers to compounds with inhibitory effects on the related isoform, but without specific value. The conditions noted are these: cited from earlier work.

In another assay the target is CDK5 (Homo sapiens, UniProt Q00535). The conditions noted are these: cited from earlier work.
In a further assay the target is CDK6 (Homo sapiens, UniProt Q00534). Also on record: key to the marks not given beside the values. The conditions noted are these: cited from earlier work.
The target in the next assay is CDK7 (Homo sapiens, UniProt P50613). The conditions noted are these: cited from earlier work.
The target in the next assay is CDK2 (Homo sapiens, UniProt P24941). The conditions noted are these: cited from earlier work.
A further assay has as its system ACE2. The format is cell-based, human.
For another assay, the system named is TMPRSS2, CTSL and FURIN. The format is cell-based, human.
For the next assay, the system named is CLK. Also on record: key: + is used to indicate the potency of the inhibitor; ++++ > +++ > ++ > +; + is used to indicate the potency of the inhibitor; ++++ > +++ > ++ > +; + is used to indicate the potency of the inhibitor; ++++ > +++ > ++ > +; + is used to indicate the potency of the inhibitor; ++++ > +++ > ++ > +; ◯ refers to compounds with inhibitory effects on the related isoform, but without specific value. The conditions noted are these: cited from earlier work.

Counter-ions that a name gives are not always drawn.

Sequence of CDK5 (Q15078 99-307): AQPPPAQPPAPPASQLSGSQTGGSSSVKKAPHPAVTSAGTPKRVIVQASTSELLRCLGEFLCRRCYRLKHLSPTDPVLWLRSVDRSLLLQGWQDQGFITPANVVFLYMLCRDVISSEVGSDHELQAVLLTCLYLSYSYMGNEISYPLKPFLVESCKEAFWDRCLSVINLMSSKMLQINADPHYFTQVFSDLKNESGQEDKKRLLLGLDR
Sequence of CDK5 (Q00535 whole entry): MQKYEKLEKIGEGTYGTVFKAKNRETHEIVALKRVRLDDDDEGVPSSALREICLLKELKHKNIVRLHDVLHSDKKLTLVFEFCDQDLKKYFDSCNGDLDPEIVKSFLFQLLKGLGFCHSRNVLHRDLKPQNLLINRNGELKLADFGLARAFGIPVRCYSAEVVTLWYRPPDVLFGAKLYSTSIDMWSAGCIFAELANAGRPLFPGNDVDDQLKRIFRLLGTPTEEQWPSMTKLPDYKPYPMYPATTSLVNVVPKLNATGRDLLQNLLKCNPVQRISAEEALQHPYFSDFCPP
Sequence of CDK4 (P11802 whole entry, species assumed): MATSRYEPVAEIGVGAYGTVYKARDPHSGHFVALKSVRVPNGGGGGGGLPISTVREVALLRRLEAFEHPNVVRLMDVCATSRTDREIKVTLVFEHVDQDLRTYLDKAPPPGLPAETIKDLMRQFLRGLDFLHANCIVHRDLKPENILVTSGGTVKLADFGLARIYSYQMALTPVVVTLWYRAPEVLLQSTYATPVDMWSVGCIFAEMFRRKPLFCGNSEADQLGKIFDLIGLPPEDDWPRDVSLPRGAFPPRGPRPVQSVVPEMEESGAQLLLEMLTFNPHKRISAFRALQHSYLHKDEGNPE
Sequence of CDK4 (P24385 whole entry partner, species assumed): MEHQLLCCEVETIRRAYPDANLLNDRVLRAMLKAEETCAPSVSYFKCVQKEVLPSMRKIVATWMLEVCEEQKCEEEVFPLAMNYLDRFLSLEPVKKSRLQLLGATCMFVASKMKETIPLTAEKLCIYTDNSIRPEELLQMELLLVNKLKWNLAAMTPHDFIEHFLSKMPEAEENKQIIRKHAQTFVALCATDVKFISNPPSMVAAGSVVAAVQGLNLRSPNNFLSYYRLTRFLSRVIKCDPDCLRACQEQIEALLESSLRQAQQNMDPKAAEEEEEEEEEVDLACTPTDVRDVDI
Sequence of CDK9 (P50750 whole entry, canonical isoform): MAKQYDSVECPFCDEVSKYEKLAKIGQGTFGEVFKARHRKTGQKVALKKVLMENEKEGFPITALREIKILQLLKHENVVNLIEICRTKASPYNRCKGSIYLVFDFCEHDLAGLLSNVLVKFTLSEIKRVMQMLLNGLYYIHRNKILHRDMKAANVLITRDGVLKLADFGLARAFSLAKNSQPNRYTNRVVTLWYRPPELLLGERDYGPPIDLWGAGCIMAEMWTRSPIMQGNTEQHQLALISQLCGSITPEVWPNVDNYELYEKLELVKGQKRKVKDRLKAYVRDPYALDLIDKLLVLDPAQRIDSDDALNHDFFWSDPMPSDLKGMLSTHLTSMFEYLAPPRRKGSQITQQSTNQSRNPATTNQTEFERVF
Sequence of CDK9 (O60563 whole entry, further chain, canonical isoform): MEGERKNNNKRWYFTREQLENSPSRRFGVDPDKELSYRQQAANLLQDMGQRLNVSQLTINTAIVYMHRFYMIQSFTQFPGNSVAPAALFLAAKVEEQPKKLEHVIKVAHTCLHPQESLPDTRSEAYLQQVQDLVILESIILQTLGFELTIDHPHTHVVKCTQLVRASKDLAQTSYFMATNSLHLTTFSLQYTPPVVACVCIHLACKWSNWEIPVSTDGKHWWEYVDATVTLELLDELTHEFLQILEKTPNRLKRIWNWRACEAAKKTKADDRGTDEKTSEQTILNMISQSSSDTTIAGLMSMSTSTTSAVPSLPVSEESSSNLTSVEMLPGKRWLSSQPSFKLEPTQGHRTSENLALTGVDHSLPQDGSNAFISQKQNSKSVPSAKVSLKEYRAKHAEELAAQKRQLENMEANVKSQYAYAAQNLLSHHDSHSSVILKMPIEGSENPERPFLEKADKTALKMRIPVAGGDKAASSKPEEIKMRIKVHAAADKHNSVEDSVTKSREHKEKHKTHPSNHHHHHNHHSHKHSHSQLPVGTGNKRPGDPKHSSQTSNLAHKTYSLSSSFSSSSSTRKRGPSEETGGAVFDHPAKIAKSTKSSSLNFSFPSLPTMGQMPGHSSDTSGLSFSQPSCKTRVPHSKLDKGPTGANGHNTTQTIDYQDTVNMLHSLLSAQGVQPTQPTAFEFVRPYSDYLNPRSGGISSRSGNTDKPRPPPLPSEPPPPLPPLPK
Sequence of CDK6 (Q00534 whole entry): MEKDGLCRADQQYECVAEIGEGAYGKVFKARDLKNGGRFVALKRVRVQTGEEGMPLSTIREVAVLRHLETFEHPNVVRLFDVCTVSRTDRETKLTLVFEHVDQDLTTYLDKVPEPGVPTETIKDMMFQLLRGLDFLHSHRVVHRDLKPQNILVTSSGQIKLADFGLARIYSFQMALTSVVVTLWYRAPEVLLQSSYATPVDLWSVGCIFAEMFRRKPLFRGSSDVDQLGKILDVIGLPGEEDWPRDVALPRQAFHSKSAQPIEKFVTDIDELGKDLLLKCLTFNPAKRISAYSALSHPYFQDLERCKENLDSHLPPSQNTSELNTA
Sequence of CDK6 (P30281 whole entry, further chain): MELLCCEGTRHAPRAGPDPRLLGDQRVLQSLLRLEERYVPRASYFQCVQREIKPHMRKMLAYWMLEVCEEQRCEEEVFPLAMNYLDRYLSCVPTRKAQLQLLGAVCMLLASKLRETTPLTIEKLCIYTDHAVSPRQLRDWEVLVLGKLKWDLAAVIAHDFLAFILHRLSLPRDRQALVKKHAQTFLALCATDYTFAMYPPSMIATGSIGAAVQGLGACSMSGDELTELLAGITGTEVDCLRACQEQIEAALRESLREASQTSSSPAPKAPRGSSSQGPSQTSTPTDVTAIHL
Sequence of CDK1 (P06493 whole entry, species assumed, canonical isoform): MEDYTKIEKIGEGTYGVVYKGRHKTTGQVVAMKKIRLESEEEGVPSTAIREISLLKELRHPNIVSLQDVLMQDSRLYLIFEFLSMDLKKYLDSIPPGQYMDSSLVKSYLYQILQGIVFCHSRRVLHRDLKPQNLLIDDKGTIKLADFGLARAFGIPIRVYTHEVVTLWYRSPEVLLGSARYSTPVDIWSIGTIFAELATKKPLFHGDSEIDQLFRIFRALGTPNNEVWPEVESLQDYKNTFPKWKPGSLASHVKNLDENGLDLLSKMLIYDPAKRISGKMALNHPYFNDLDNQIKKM
Sequence of CDK1 (P14635 whole entry partner, species assumed, canonical isoform): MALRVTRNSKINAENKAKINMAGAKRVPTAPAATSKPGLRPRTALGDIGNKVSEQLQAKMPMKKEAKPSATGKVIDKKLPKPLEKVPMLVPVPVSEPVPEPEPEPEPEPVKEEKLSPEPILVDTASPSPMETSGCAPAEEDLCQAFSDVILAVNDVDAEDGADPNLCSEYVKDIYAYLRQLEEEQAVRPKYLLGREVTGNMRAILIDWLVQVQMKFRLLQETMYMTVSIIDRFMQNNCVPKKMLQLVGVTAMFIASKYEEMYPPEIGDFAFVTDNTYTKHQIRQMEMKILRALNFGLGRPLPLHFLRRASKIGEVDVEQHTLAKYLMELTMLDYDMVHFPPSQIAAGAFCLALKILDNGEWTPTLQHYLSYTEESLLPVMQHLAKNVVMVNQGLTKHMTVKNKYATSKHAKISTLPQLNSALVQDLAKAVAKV
Sequence of CDK7 (P50613 whole entry): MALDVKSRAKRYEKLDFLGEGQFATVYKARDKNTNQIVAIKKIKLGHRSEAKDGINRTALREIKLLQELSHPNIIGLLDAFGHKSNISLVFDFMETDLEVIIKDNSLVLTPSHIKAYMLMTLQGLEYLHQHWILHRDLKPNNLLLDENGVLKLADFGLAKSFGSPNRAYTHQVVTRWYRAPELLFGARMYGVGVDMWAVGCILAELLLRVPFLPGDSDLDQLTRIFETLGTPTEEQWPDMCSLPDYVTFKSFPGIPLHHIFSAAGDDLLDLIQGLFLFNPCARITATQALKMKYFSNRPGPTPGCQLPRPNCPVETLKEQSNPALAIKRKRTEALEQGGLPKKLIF
Sequence of CDK7 (P51946 whole entry, further chain): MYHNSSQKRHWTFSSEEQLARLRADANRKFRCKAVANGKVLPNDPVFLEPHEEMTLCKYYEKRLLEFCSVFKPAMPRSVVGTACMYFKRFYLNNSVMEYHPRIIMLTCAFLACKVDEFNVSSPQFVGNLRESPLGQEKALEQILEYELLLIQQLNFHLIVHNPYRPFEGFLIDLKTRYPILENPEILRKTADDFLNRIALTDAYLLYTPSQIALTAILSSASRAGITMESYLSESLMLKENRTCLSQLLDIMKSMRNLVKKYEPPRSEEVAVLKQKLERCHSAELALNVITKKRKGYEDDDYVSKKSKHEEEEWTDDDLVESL
Sequence of CDK7 (P51948 whole entry, further chain): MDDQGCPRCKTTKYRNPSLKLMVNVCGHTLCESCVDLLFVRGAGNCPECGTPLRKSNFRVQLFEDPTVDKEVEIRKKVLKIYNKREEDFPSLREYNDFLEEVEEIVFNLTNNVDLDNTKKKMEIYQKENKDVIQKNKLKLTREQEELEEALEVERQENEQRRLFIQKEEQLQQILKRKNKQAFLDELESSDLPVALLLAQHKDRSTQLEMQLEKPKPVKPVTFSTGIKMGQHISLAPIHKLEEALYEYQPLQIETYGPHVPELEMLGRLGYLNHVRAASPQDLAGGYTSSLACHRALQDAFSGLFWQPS

For `C[C@H]1CC[C@H](n2c3cnccc3c3cnc(Nc4ccc5c(n4)CCN(C(=O)CO)C5)nc32)CC1` [AMG-925], on CDK4, the “Inhibitory potency CDK4” value is given as “++++”. On CDK1, the “Inhibitory potency CDK1” value is “+”.

`O=C(NC1CCNCC1)c1[nH]ncc1NC(=O)c1c(Cl)cccc1Cl` [AT7519 HCl]: the “Inhibitory potency CDK9” value at CDK9 was “++++”. For the same compound, the “Inhibitory potency CDK4” value on CDK4 is “++”. In addition, the “Inhibitory potency CDK5” value at CDK5 is recorded as “+++”. Further, the “Inhibitory potency CDK6” value on CDK6 was “++”. Moreover, the “Inhibitory potency CDK1” value on CDK1 was “++”.

As for `O=C(NC1CCNCC1)c1[nH]ncc1NC(=O)c1c(Cl)cccc1Cl` [AT7519], the “Inhibitory potency CDK7” value at CDK7 is recorded as “+”.

`Cc1ncc(-c2ccnc(Nc3ccc(S(C)(=O)=O)cc3)n2)n1C(C)C` [AZD5438]: the “Inhibitory potency CDK9” value on CDK9 is listed as “+++”. Besides, at CDK1, the “Inhibitory potency CDK1” value is given as “+++”.

On to `CCCCOc1c(C(=O)c2c(F)cc(C)cc2F)c[nH]c2nncc1-2` [BMS-265246], for which the “Inhibitory potency CDK2” value at CDK2 was “++++”. Further, the “Inhibitory potency CDK4” value at CDK4 is “++”. Also, the “Inhibitory potency CDK1” value at CDK1 is on record as “++++”.

With `COc1ccc(CNc2nc(N(CCO)CCO)nc3c2ncn3C(C)C)cc1` [CVT 313], the “Inhibitory potency CDK2” value on CDK2 is “+”. The “Inhibitory potency CDK4” value on CDK4 is on record as “+”. Also, on CDK1, the “Inhibitory potency CDK1” value was “+”.

Take `CN1CC[C@H](c2c(O)cc(O)c3c(=O)cc(-c4ccccc4Cl)oc23)[C@H](O)C1` [Flavopiridol]: in the assay with ACE2, the “ability of CHI3L1 to stimulate ACE2 mRNA accumulation” value is “potently inhibited” and the “levels of basal ACE2 expression” value was “diminished”. The “Inhibitory potency CDK7” value at CDK7 was “+”. On CDK2, the “Inhibitory potency CDK2” value was “+++”. Moreover, in the assay on TMPRSS2, CTSL and FURIN, the “basal and CHI3L1-stimulated expression of TMPRSS2, CTSL and FURIN” value is on record as “potently decreased”. At CDK4, the “Inhibitory potency CDK4” value is on record as “+++”. Besides, the “Inhibitory potency CDK6” value at CDK6 is given as “++”. In addition, the “Inhibitory potency CDK1” value on CDK1 is “+++”.

Take `Nc1nc(Nc2ccc(S(N)(=O)=O)cc2)nn1C(=O)c1c(F)cccc1F` [JNJ-7706621]: the “Inhibitory potency CDK2” value at CDK2 is recorded as “++++”. The “Inhibitory potency CDK4” value on CDK4 is “+”. Besides, the “Inhibitory potency CDK6” value at CDK6 is “++”. The “Inhibitory potency CDK1” value at CDK1 is “++++”.

With `Cn1cc(-c2cnn3c(N)c(Br)c([C@@H]4CCCNC4)nc23)cn1` [MK-8776], at CDK2, the “Inhibitory potency CDK2” value was “++”.

With `CNC(=O)c1nn(C)c2c1C(C)(C)Cc1cnc(Nc3ccc(N4CCN(C)CC4)cc3)nc1-2` [Milciclib], the “Inhibitory potency CDK7” value on CDK7 is listed as “++”. Further, the “Inhibitory potency CDK2” value on CDK2 is “+++”. For the same compound, the “Inhibitory potency CDK4” value at CDK4 was “++”. For the same compound, the “Inhibitory potency CDK5” value on CDK5 was “+”. In addition, the “Inhibitory potency CDK1” value at CDK1 is reported as “+”.

With `CC(C)CC(=O)Nc1[nH]nc2c1CN(C(=O)C1CCN(C)CC1)C2(C)C` [PHA-793887], the “Inhibitory potency CDK7” value on CDK7 is on record as “++++”. In addition, the “Inhibitory potency CDK2” value at CDK2 is given as “++++”. The “Inhibitory potency CDK9” value at CDK9 is recorded as “++”. Further, on CDK4, the “Inhibitory potency CDK4” value is recorded as “++”. The “Inhibitory potency CDK5” value on CDK5 is “++++”. At CDK1, the “Inhibitory potency CDK1” value is listed as “++”.

Consider `CC(C)(C)c1cnc(CSc2cnc(NC(=O)C3CCNCC3)s2)o1` [SNS-032], for which, on CDK9, the “Inhibitory potency CDK9” value is “++++”. Moreover, the “Inhibitory potency CDK5” value on CDK5 is reported as “+”. Moreover, the “Inhibitory potency CDK1” value on CDK1 was “+”.

As for `COc1c(O)cc(O)c2c(=O)cc(-c3ccccc3)oc12` [Wogonin], at CDK9, the “Inhibitory potency CDK9” value is listed as “◯”.

On to CGP60474, for which, at CDK2, the “Inhibitory potency CDK2” value is on record as “+++”. The “Inhibitory potency CDK1” value on CDK1 is listed as “+++”.

Regarding Kenpaulione, the “Inhibitory potency CDK2” value on CDK2 was “+”. Besides, the “Inhibitory potency CDK5” value at CDK5 is on record as “+”. In addition, the “Inhibitory potency CDK1” value on CDK1 is “+”.

Consider LDC000067, for which the “Inhibitory potency CDK9” value at CDK9 is listed as “+++”. In addition, the “Inhibitory potency CDK4” value at CDK4 is recorded as “+”. The “Inhibitory potency CDK1” value at CDK1 is reported as “+”.

As to ML167, the “Inhibitory potency CLK” value with CLK is reported as “++”.

As for NU2058, the “Inhibitory potency CDK1” value at CDK1 is “+”.

On to NU6027, for which the “Inhibitory potency CDK1” value on CDK1 is reported as “+”.

Consider NU 6102, for which the “Inhibitory potency CDK4” value on CDK4 is given as “+”. For the same compound, the “Inhibitory potency CDK1” value on CDK1 is on record as “+++”.

Consider NVP-LCQ195, for which, at CDK2, the “Inhibitory potency CDK2” value is “+++”. For the same compound, the “Inhibitory potency CDK9” value on CDK9 is on record as “◯”. Moreover, in the assay with CLK, the “Inhibitory potency CLK” value is recorded as “◯”. Further, on CDK5, the “Inhibitory potency CDK5” value is recorded as “++++”. Besides, on CDK1, the “Inhibitory potency CDK1” value was “++++”.

As to PHA-767491, at CDK2, the “Inhibitory potency CDK2” value is recorded as “++”. For the same compound, on CDK9, the “Inhibitory potency CDK9” value is recorded as “+++”. The “Inhibitory potency CDK5” value on CDK5 is “+”. Further, the “Inhibitory potency CDK1” value on CDK1 is “++”.

Take Palbociclib Isethionate: the “Inhibitory potency CDK6” value at CDK6 is listed as “+++”.

Take Purvalanol A: the “Inhibitory potency CDK4” value on CDK4 is “+”.

Turning to Purvalanol B, the “Inhibitory potency CDK5” value at CDK5 is “++++”.

Consider Ro-3306, for which the “Inhibitory potency CDK1” value on CDK1 was “+++”.

For TG003, in the assay with CLK, the “Inhibitory potency CLK” value is listed as “+++”.

(Values after patent publication US20230312752A1 (Brown University, priority 2021, published 2023).)
